We go through 7 compounds from paper PMC5813016 (Nature Communications, 2018).

The nature of data set [1]: Equilibrium dialysis, unbound fraction in rat brain homogenate. As to conditions: read-out: unbound fraction in rat brain homogenate (fu,b). It is filed as in vitro ADME. In general terms: Equilibrium dialysis compares concentrations on both sides of a semipermeable membrane.
The nature of data set [2]: Equilibrium dialysis, unbound fraction in monkey plasma. Format: in vitro ADME. The note with it: read-out: unbound fraction in monkey plasma (fu,p).
Another data set has as its target Human PDE3A1 (Homo sapiens, UniProt Q14432). The experiment in a line: PDE SPA assay, PDE3A1. It is filed as biochemical. How it is done: (§1) PDE assays: The PDE assays measures the conversion of 3′, 5′-[^3H] cAMP to 5′-[^3H] AMP (for PDE 3A1 and 4D3) or 3′, 5′-[^3H] cGMP to 5′-[^3H] GMP (for PDE 5A1) by the relevant PDE enzyme subtype. Yttrium silicate (YSi) scintillation proximity (SPA) beads bind selectively to 5′-[^3H] AMP or 5′-[^3H] […] The assay was performed in white walled opaque bottom 384-well plates. One microliter of compound in dimethyl sulfoxide was added to each well. Enzyme solution was then added to each well in buffer (in mM: Trizma, 50 (pH7.5); MgCl2, 1.3 mM). […] The reaction was terminated by the addition of 20 µl of PDE YSi SPA beads (Perkin Elmer). Following an additional 8 h incubation period the plates were read on a MicroBeta radioactive plate counter (Perkin Elmer) to determine radioactive counts per well.
(§2) In vitro data analysis: Agonist/antagonist curves were plotted from individual experiments, and EC50/IC50 values were determined using a four parameter logistic fit.

A further data set has as its target T1, Serotonin Transporter (Homo sapiens, UniProt P31645).
T1 construct: expressed in transfected cells
The experiment in a line: Amine transporter dye uptake assay, SERT. Format: cell-based. As to conditions: read-out: Serotonin Transporter, Inhibitor IC50. On the procedure: HBSS/HEPES containing compound (5 µl) was added to the wells of black walled clear bottomed 384-well plate. Transporter dye (25 µl) (Molecular Devices; Cat # R8174) was added to each well. Finally 15,000 cells (20 µl) stably expressing the amine transporter of interest were added to each well and the plate is incubated at 37 °C for 30 min (DAT) or 60 min (NET and SERT). The plate is transferred to the FLIPR Tetra® instrument and the fluorescence of each well was measured (Ex […]). The level of fluorescence measured directly relates to the level of uptake of the dye labelled amine, with a reduction in levels being related to an inhibition of the respective transporter.
as §2

For another data set, the target named is Human PDE4D3 (Homo sapiens, UniProt Q08499). Put plainly: PDE SPA assay, PDE4D3. Format: biochemical. On the procedure:
as §1, §2

The target of the next data set is T2, Adrenergic Beta 2 (Homo sapiens, UniProt P07550).
T2 construct: expressed in transfected cells
T2 sequence (P07550 whole entry): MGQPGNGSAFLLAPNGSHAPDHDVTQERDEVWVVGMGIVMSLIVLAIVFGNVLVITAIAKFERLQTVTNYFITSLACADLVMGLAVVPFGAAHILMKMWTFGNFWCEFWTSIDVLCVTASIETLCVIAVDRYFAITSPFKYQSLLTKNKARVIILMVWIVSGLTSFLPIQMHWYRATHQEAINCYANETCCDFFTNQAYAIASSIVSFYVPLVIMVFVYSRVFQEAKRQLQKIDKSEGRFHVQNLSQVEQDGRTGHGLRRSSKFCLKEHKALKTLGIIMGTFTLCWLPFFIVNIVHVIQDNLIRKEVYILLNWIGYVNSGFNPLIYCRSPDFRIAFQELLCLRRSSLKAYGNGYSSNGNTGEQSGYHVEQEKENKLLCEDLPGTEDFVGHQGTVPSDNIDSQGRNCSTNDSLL
Put plainly: Beta arrestin enzyme fragment complementation assay, adrenergic beta 2. It is filed as cell-based. As to conditions: for EC50: read-out: Adrenergic Beta 2, Agonist EC50; for IC50: vs EC80 of agonist, read-out: Adrenergic Beta 2, Antagonist IC50. How it is done: Recruitment of β-arrestin to the GPCR, results in a functional enzyme that generates a chemiluminescent signal when substrate is added. Cells were plated at 5000 cells per well (40 µl per well) in black walled clear bottomed 384-well plates 24 h prior to running the assay. Medium was removed from the plates. For agonist studies 15 µl of HBSS/HEPES containing compound was added to the cells and the plate was incubated at room temperature for 90 min. For antagonist studies 15 µl of HBSS/HEPES containing compound was added to the cells and was incubated for 15 min prior to the addition of 15 µl of an EC80 concentration of agonist. The plate was subsequently incubated at room temperature for 90 min. Both assays were terminated by addition of 15 µl of a Beta-Glo® solution (Promega). Following an additional 30 min incubation the luminescence of each well was measured to determine the level of receptor activation.
as §2

For a further data set, the system named is human D1R N334A mutant. Put plainly: cAMP assay, D1R mutant N334A. The note with it: relative to wild-type D1R; each table line is one experiment (Experiment # 1-6). In general terms: Changes in cAMP serve as a functional read-out for many G protein-coupled receptors.
A further data set deals with human D1R T273A mutant. The experiment in a line: cAMP assay, D1R mutant T273A. The note with it: relative to wild-type D1R; each table line is one experiment (Experiment # 1-6).
Another data set concerns human D1R S188T mutant. Put plainly: cAMP assay, D1R mutant S188T. As to conditions: relative to wild-type D1R; each table line is one experiment (Experiment # 1-6).
The next data set has as its system human D1R N292A mutant. Put plainly: cAMP assay, D1R mutant N292A. The note with it: relative to wild-type D1R; each table line is one experiment (Experiment # 1-6).
For the next data set, the system named is human D1R W321A mutant. The experiment in a line: cAMP assay, D1R mutant W321A. As to conditions: relative to wild-type D1R; each table line is one experiment (Experiment # 1-6).

Several values for one entry are separate records, joined by “and”; a condition that tells them apart may be missing. Identical values can stand only once.

T1 sequence (P31645 whole entry): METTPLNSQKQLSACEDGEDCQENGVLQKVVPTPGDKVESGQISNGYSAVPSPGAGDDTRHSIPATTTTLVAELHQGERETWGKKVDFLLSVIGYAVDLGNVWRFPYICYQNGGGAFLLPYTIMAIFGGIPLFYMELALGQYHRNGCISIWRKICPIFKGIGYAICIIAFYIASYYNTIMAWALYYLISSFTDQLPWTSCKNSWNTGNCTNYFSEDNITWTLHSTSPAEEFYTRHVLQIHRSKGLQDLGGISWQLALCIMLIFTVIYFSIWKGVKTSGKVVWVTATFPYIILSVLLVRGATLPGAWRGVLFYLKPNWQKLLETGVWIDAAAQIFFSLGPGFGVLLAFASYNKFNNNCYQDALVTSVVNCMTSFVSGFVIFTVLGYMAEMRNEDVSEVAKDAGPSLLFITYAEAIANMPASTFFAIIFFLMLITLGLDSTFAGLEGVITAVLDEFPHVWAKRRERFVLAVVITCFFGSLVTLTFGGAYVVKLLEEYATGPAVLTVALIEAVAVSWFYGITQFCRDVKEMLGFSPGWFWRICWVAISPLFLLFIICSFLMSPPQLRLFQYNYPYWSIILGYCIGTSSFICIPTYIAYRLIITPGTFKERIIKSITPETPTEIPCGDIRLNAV
Sequence of Human PDE3A1 (Q14432 whole entry): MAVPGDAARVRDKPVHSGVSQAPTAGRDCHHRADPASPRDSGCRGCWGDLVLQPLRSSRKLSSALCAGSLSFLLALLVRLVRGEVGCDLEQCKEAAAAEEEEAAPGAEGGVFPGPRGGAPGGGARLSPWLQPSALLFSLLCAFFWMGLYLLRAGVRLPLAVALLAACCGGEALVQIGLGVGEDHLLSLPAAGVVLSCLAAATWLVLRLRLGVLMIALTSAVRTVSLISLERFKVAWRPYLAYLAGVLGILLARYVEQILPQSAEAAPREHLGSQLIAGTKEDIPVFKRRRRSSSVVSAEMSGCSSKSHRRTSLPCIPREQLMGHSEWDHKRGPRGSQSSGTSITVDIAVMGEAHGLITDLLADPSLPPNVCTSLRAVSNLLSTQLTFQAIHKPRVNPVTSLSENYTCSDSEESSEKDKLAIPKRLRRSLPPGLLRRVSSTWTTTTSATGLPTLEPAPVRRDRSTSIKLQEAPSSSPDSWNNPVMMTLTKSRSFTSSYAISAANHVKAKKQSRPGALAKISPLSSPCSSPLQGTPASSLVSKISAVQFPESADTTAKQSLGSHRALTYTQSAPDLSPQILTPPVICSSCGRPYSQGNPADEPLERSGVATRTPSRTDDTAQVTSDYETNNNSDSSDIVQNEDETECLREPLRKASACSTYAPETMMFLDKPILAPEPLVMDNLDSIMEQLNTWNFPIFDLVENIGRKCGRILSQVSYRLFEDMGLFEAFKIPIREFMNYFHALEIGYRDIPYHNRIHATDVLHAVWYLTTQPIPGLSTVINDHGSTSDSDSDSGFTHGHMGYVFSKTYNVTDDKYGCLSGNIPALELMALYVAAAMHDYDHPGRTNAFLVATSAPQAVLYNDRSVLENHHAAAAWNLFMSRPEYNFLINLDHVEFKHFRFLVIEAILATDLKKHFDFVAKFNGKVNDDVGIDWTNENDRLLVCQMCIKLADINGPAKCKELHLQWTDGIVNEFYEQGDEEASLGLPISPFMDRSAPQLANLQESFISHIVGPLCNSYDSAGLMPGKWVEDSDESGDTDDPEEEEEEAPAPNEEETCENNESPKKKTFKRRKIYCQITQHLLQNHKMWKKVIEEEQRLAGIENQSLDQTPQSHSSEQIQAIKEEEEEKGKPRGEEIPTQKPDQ
Sequence of Human PDE4D3 (Q08499 1-673 isoform Q08499-2): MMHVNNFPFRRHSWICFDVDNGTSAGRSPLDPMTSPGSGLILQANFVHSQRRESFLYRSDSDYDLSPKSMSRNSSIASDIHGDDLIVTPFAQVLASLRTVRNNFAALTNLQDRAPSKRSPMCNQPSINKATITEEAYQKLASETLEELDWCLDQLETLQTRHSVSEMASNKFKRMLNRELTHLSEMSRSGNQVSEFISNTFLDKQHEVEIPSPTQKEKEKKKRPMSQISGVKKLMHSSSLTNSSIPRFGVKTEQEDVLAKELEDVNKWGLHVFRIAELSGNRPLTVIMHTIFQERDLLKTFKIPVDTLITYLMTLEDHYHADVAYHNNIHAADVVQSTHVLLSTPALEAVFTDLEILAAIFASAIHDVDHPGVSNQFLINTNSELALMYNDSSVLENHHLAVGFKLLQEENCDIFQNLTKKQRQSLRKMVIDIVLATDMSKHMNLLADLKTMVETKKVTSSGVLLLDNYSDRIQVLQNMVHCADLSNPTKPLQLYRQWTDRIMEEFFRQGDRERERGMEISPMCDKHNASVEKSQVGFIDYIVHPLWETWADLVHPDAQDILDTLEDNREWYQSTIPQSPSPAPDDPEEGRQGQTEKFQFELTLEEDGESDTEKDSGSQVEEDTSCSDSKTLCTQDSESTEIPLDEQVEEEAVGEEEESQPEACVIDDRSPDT

Consider `NC[C@@H]1O[C@H](C23CC4CC(CC(C4)C2)C3)Cc2c1ccc(O)c2O` [A-77636, reference compound], for which the fraction unbound is 0.0012 in [1] and 0.044 in data set [2].

For `Cc1cc(Oc2nccc3occc23)ccc1-c1c(C)cnnc1C` [PF-1119], the IC50 was 9.21 µM at Human PDE3A1, > 10 µM at Serotonin Transporter, 1.81 µM against Human PDE4D3 and > 10 µM on Adrenergic Beta 2. In addition, at Adrenergic Beta 2, the EC50 is > 10 µM.

On to `Cc1cc(Oc2cccc(O)c2O)ccc1-c1c(C)ncnc1C` [PF-1437], for which the “fold shift of cAMP functional potency, N334A (EC50 mutant/ EC50 WT)” value in the data set on human D1R N334A mutant turned out to be 1.2. Besides, the “fold shift of cAMP functional potency, T273A (EC50 mutant/ EC50 WT)” value in the data set with human D1R T273A mutant worked out at 0.1. In addition, in the data set with human D1R S188T mutant, the “fold shift of cAMP functional potency, S188T (EC50 mutant/ EC50 WT)” value (“fold shift … S188T (EC50 mutant/ EC50 WT)” for short) was 0.6 and 0.9.

`Cc1n[nH]c(=O)c(C)c1-c1ccc(Oc2nccc3occc23)cc1F` [PF-2334]: the fraction unbound worked out at 0.021 in data set [1] and 0.04 in data set [2].

As for `Cc1cc(Oc2nccc3occc23)ccc1-c1c(C)ncc2nccn12` [PF-6142], the “fold shift of cAMP functional potency, N334A (EC50 mutant/ EC50 WT)” value in the data set on human D1R N334A mutant is listed as 1.3. The “fold shift of cAMP functional potency, T273A (EC50 mutant/ EC50 WT)” value in the data set on human D1R T273A mutant is given as 0.2. Also, the IC50 against Human PDE3A1 was 5.12 µM; on Serotonin Transporter it was > 10 µM; against Human PDE4D3 it was > 10 µM; on Adrenergic Beta 2, > 10 µM. In the data set on human D1R N292A mutant, the “fold shift of cAMP functional potency, N292A (EC50 mutant/ EC50 WT)” value was 23.7 and 30.6. Also, at Adrenergic Beta 2, the EC50 was > 10 µM. The “fold shift … S188T (EC50 mutant/ EC50 WT)” value in the data set with human D1R S188T mutant was 1.3 and 1.7. Also, in the data set with human D1R W321A mutant, the “fold shift of cAMP functional potency, W321A (EC50 mutant/ EC50 WT)” value is 22.7 and 21.1.

Take `Cc1cc(Oc2nccc3occc23)ccc1-n1c(C)nc2cnccc21` [PF-8294]: the IC50 on Human PDE3A1, at Serotonin Transporter, against Human PDE4D3 and at Adrenergic Beta 2 was > 10 µM each time. Also, the EC50 on Adrenergic Beta 2 is > 10 µM.

`Cc1cc(Oc2nccc3occc23)ccc1-c1c(C)ncnc1C` [PF-8871]: the IC50 against Human PDE3A1, at Serotonin Transporter, against Human PDE4D3 and on Adrenergic Beta 2 was > 10 µM each time. In the data set with human D1R N292A mutant, the “fold shift of cAMP functional potency, N292A (EC50 mutant/ EC50 WT)” value was 30.7. In addition, the EC50 at Adrenergic Beta 2 was > 10 µM. For the same compound, the “fold shift … S188T (EC50 mutant/ EC50 WT)” value in the data set on human D1R S188T mutant came out at 1.8. Also, the “fold shift of cAMP functional potency, W321A (EC50 mutant/ EC50 WT)” value in the data set with human D1R W321A mutant worked out at 21.4.

What is called fraction unbound is the share of the substance not bound to proteins or other matrix. What is called IC50 is the concentration that inhibits the measured activity by half. Broadly, the EC50 is the midpoint of the concentration-response curve.
